# Legend:
# B16 mouse melanoma [1] = assay: B16 mouse melanoma model, s.c. CCDTHT (Example 8); assay type: in vivo; settings: for Body weight (total weight minus tumor weight) / Total weight / Tumor weight: CCDTHT 4.5-mg/kg s.c. daily from day 11 until day 22
# Source text: (§1) The B16 mouse melanoma and MXT mouse mammary tumors were developed in first generation hybrid BDF1 (C57 B1 female×DBA/2 male) adult female mice kept at specified pathogen free (SPF) hygienic level. These models were chosen for these experiments because these mice have the complete immune system, and both tumors grow very rapidly. To develop the tumors, B16 and MXT tumor tissue fragments of about 0.1-cm^3 were surgically implanted subcutaneously into the intrascapular region to develop the tumors. Each tumor fragment contained about 1-1.5×10^6 cells. The animals were kept in macrolon cages on ventilated rack at 22-24° C. (50-60% humidity) with lighting regimen of 12/12 h light/dark. The animals had free access to tap water and were fed with sterilized standard diet (Charles River VRF1, Germany) ad libitum. The animals were taken care of according to the “Guiding Principle for the care and use of Animals” based upon the Helsinki declaration and they were approved by the local ethical committee.
# (§2) In case of both tumor models the tumor size was usually in the range of 0.2 to 0.5-g when treatments started 7-11 days after tumor implantation; the mice were selected so that in the same treatment group the difference in tumor size was no greater than 0.1 gram. In some experiments, the test proteins were suspended in physiological saline and injected in 50-μl volume subcutaneously in the vicinity of tumor (within 1-cm of tumor margin). In other experiments, the test proteins were dispersed in Vaselinum cholesteratum and used topically; 150-mg cream was applied on the tumor and the vicinity of tumor area (with about 0.5-cm of the tumor margin). The tumor volume was determined by using calipers; this technique is well known to one having ordinary skill in the art. Tumor volume was calculated according to the generally accepted formula: V=a^2×b×7r/6, where “a” and “b” mean the shortest and longest diameter, respectively, of the measured tumor.
# In this model, CCDTHT, a chemically synthesized compound is used to prevent or reverse tumor-induced body weight loss. The B16 mouse tumors were developed as described in Example 3. Two experimental groups each involving five mice were used. In the first group, mice remained untreated during the entire observation period. In the second group, starting on the 11th day after tumor implantation, mice were s.c. administered 4.5-mg/kg CCDTHT; then the treatments were repeated daily until day 22. The mean values for total weight, tumor weight and body weight (the difference between total and tumor weight) are shown in TABLE 5.
# MXT mouse mammary tumor [2] = assay: Cisplatin-treated MXT mouse mammary tumor model, CCDTHT (Example 10); assay type: in vivo; settings: with cisplatin 3-mg/kg i.p.
# Source text: as §1, §2
# The mouse MXT mammary tumor was developed as described in Example 3. In the first group, animals remained untreated during the whole observation period. In the second group, starting on the 7th day after tumor implantation, mice were administered 3-mg per 1-kg of cisplatin i.p. 9-times every second day. In the third group, starting on the 7th day after tumor implantation, mice were simultaneously administered 3-mg per 1-kg of cisplatin i.p. and 4.6-mg per 1-kg of CCDTHT s.c. In the fourth group, starting on the 7th day after tumor implantation, mice were simultaneously administered 3-mg per 1-kg of cisplatin i.p. as well as 4.6-mg per 1-kg of CCDTHT s.c. and 14-mg per 1-kg of highly purified PALP s.c. Each treatment was performed 9-times on every second day. Each group included 7 animals. The mean values for total weight, tumor weight and body weight (the difference between total and tumor weight) are shown in TABLE 8.
# MXT mouse mammary tumor [3] = assay: Cisplatin-treated MXT mouse mammary tumor model, purified PALP, AT, holo-TF, apo-TF (Example 9, Experiment 2); assay type: in vivo; settings: 12-mg/kg s.c. with cisplatin 3-mg/kg i.p.
# Source text: as §1, §2
# Experiment 2. The commercial PALP used in this model for Exp. 1 was composed of PALP (˜10%), TF (˜12%), AT (˜30%), albumin (˜35%) and the degradation products of TF (˜13%). […] In this experiment, it was determined whether the other two major proteins, i.e. TF and AT, present in the commercial PALP preparation in addition to PALP, also influence cisplatin-induced loss of body weight or not. The mouse MXT mammary tumor was developed as described in Example 3. In the first group, animals remained untreated during the whole observation period. In the second group, starting on the 7th day after tumor implantation, mice were administered 3-mg per 1-kg of cisplatin i.p. 6-times every second day. In the third group, starting on the 7th day after tumor implantation, mice were simultaneously administered 3-mg per 1-kg of cisplatin i.p. and 12-mg per 1-kg of purified PALP s.c. In the fourth group, starting on the 7th day after tumor implantation, mice were simultaneously administered 3-mg per 1-kg of cisplatin i.p. and 12-mg per 1-kg of highly purified AT s.c. In the fifth group, starting on the 7th day after tumor implantation, mice were simultaneously administered 3-mg per 1-kg of cisplatin i.p. and 12-mg per 1-kg of commercial holo-TF (h-TF, T 0665 in the Sigma catalog) s.c. In the sixth group, starting on the 7th day after tumor implantation, mice were simultaneously administered 3-mg per 1-kg of cisplatin i.p. and 12-mg per 1-kg of commercial apo-TF (a-TF, T 2036 in the Sigma catalog) s.c. Holo-TF contained 1,100-1,600 μg iron per gram protein while apo-TF was essentially iron-free. Each treatment with the proteins was also performed 6-times on every second day simultaneously with the cisplatin treatment. Each group included 7 animals. The mean values for total weight, tumor weight and body weight (the difference between total and tumor weight) are shown in gram in TABLE 7.
# fibroblast proliferation [4] = settings: in vitro; cited from earlier work
# B16 mouse melanoma [5] = assay: B16 mouse melanoma model, s.c. commercial PALP, s.c. plus topical PALP, or TF (Example 4, Experiment 2); assay type: in vivo; settings: TF 16-mg/kg s.c.; for Body weight (total weight minus tumor weight) / Total weight / Tumor weight: days 11-18 daily: commercial PALP 60-mg/kg s.c., topical cream 4-mg commercial PALP/g
# Source text: as §1, §2
# In this model, either highly purified PALP or commercial PALP was subcutaneously injected to reverse body weight loss in the rapidly growing B16 melanoma model. Two separate experiments were performed to validate the effects of highly purified PALP (Experiment 1) and commercial PALP (Experiment 2). For both experiments, the B16 mouse melanoma model was developed as described in Example 3. The data presented in TABLE 1 (for Experiment 1) and TABLE 2 (for Experiment 2) show the changes in total weight, tumor weight, and body weight (total weight minus tumor weight). In each experimental group all mice survived until the conclusion of the experiment.
# Experiment 2. In this experiment, the first group of animals remained untreated for the entire observation period. In the second group, from day 11 through day 18 after implantation of tumor pieces, the animals were treated daily with 60-mg/kg of commercial PALP via s.c. administration (seven treatments). In the third group, from day 11 through day 18 after implantation of tumor pieces, the animals were simultaneously administered 60-mg/kg of commercial PALP via s.c injection and treated topically with 150-mg of cream containing 4-mg commercial PALP in 1-g of Vaselinum cholesteratum (seven treatments). Topical treatment involved spreading the cream on both the tumor and surrounding skin area. In the fourth group, from day 11 through day 18 after implantation of tumor pieces, the animals were treated with 16-mg/kg of commercial partially iron-saturated TF via subcutaneous administration (seven treatments). Each group included seven mice.
# MXT mouse mammary tumor [6] = assay: Cisplatin-treated MXT mouse mammary tumor model, PALP and TF (Example 9, Experiment 1); assay type: in vivo; settings: co-treated with cisplatin 3-mg/kg i.p.
# Source text: as §1, §2
# Experiment 1. The mouse MXT mammary tumor was developed as described in Example 3. In the first group, animals remained untreated during the whole observation period. In the second group, starting on the 7th day after tumor implantation, mice were intraperitoneally (i.p.) administered 3-mg per 1-kg total weight of cisplatin 7-times every second day. In the third group, starting on the 7th day after tumor implantation, mice were simultaneously administered 3-mg per 1-kg of cisplatin i.p. and 16-mg per 1-kg of purified PALP s.c. In the fourth group, starting on the 7th day after tumor implantation, mice were simultaneously administered 3-mg per 1-kg of cisplatin i.p. and 60-mg per 1-kg of commercial PALP s.c. In the fifth group, starting on the 7th day after tumor implantation, mice were simultaneously administered 3-mg per 1-kg of cisplatin i.p. and 14-mg per 1-kg of commercial TF (T 3309 in the Sigma catalog) s.c. Each treatment was performed 7-times on every second day. Each group included 7 animals. The mean values for total weight, tumor weight and body weight (the difference between total and tumor weight) are shown in TABLE 6.
# fibroblast proliferation [7] = assay: Fibroblast proliferation in vitro, effect of pre-heating the protein; assay type: cell-based
# Procedure: It is reasonable to expect that pre-heating of PALP at 65-75° C. prior to its use may also enhance its anti-cachectic effect. Thus, a step of heat-activation of both commercial and highly purified PALP preparation may be included prior to their applications.
# Thus, pre-heating of TF-containing compositions to enhance the effects of other components, such as PALP and AT will unlikely to alter the ability of TF to reduce tumor- and chemotherapy-induced body weight loss.
# Therefore, a step of heat-activation of AT may be included during the preparation of active compositions.
# [8] = day 11 after tumor transplantation
# [9] = day 14 after tumor transplantation
# [10] = day 16 after tumor transplantation
# [11] = day 18 after tumor transplantation
# [12] = day 21 after tumor transplantation
# [13] = day 23, CCDTHT 4.5-mg/kg s.c. daily
# [14] = day 23 after tumor transplantation
molecule,measurement,setting,value
"CC[N+](C)(CC)CCOCc1ccc2sc3ccccc3c(=O)c2c1.[I-] [CCDTHT, N,N-diethyl-N-methyl-2-[(9-oxo-9H-thioxanthen-2-yl)methoxy]-ethanaminium iodide]",Effect on body weight,B16 mouse melanoma [1]; CCDTHT 4.5-mg/kg s.c. daily,modest weight gain
same,Body weight (total weight minus tumor weight),B16 mouse melanoma [1]; [8],22.4 g
same,Total weight,B16 mouse melanoma [1]; [8],23.0 g
same,Tumor weight,B16 mouse melanoma [1]; [8],0.6 g
same,Body weight (total weight minus tumor weight),B16 mouse melanoma [1]; [9],22.9 g
same,Total weight,B16 mouse melanoma [1]; [9],23.7 g
same,Tumor weight,B16 mouse melanoma [1]; [9],0.8 g
same,Body weight (total weight minus tumor weight),B16 mouse melanoma [1]; [10],23.2 g
same,Total weight,B16 mouse melanoma [1]; [10],24.2 g
same,Tumor weight,B16 mouse melanoma [1]; [10],1.0 g
same,Body weight (total weight minus tumor weight),B16 mouse melanoma [1]; [11],23.4 g
same,Total weight,B16 mouse melanoma [1]; [11],24.7 g
same,Tumor weight,B16 mouse melanoma [1]; [11],1.3 g
same,Body weight (total weight minus tumor weight),B16 mouse melanoma [1]; [12],23.6 g
same,Total weight,B16 mouse melanoma [1]; [12],25.4 g
same,Tumor weight,B16 mouse melanoma [1]; [12],1.8 g
same,Body weight difference to control mice,B16 mouse melanoma [1]; [13],about 10%
same,Body weight heavier than control mice,B16 mouse melanoma [1]; [13],2.6 grams
same,Body weight (total weight minus tumor weight),B16 mouse melanoma [1]; [14],23.8 g
same,Total weight,B16 mouse melanoma [1]; [14],25.9 g
same,Tumor weight,B16 mouse melanoma [1]; [14],2.1 g
same,Effect on cisplatin-induced body weight loss,MXT mouse mammary tumor [2],effectively prevents cisplatin-induced body weight loss
AT: human α1-antitrypsin purified to homogeneity from commercial PALP,Effect on cisplatin-induced body weight loss,MXT mouse mammary tumor [3],partially reversed cisplatin-induced body weight loss
same,Effect of pre-heating on the stimulatory effect on fibroblast proliferation,fibroblast proliferation [4],enhanced by pre-heating it at 65-75 °C for 30 min or at 41 °C for 21 hours
TF s.c.: commercial partially iron-saturated human transferrin (Sigma T 3309),Effect on body weight loss,B16 mouse melanoma [5]; commercial PALP 60-mg/kg s.c.,stabilized body weights but did not promote weight gain
same,Body weight (total weight minus tumor weight),B16 mouse melanoma [5]; [8],22.4 gram
same,Total weight,B16 mouse melanoma [5]; [8],22.9 gram
same,Tumor weight,B16 mouse melanoma [5]; [8],0.5 gram
same,Body weight (total weight minus tumor weight),B16 mouse melanoma [5]; [9],23.5 gram
same,Total weight,B16 mouse melanoma [5]; [9],24.2 gram
same,Tumor weight,B16 mouse melanoma [5]; [9],0.7 gram
same,Body weight (total weight minus tumor weight),B16 mouse melanoma [5]; [10],23.5 gram
same,Total weight,B16 mouse melanoma [5]; [10],24.3 gram
same,Tumor weight,B16 mouse melanoma [5]; [10],0.8 gram
same,Body weight (total weight minus tumor weight),B16 mouse melanoma [5]; [11],23.6 gram
same,Total weight,B16 mouse melanoma [5]; [11],25.0 gram
same,Tumor weight,B16 mouse melanoma [5]; [11],1.4 gram
same,Body weight (total weight minus tumor weight),B16 mouse melanoma [5]; [12],23.9 gram
same,Total weight,B16 mouse melanoma [5]; [12],26.1 gram
same,Tumor weight,B16 mouse melanoma [5]; [12],2.2 gram
same,Body weight (total weight minus tumor weight),B16 mouse melanoma [5]; [14],23.9 gram
same,Total weight,B16 mouse melanoma [5]; [14],26.6 gram
same,Tumor weight,B16 mouse melanoma [5]; [14],2.7 gram
same,Effect on body weight loss induced by the tumor and cisplatin,MXT mouse mammary tumor [6],partially reversed body weight loss
same,Effect of pre-heating on the stimulatory effects on fibroblast proliferation,fibroblast proliferation [7],not altered by pre-heating it at up to 75 °C for 30 min
"apo-TF: commercial apo-transferrin (Sigma T 2036), essentially iron-free",Effect on cisplatin-induced body weight loss,MXT mouse mammary tumor [3],partially reversed cisplatin-induced body weight loss
"holo-TF: commercial holo-transferrin (Sigma T 0665), 1,100-1,600 μg iron per gram protein",Effect on cisplatin-induced body weight loss,MXT mouse mammary tumor [3],partially reversed cisplatin-induced body weight loss

# Source: patent US20080098491A1, “MOUSE MODELS TO STUDY CACHEXIA” (ZOLTAN LABORATORIES LLC, priority 2006, published 2008)
